Data reported in patent US20180028681A1, “COMBINATION THERAPY USING A CD19-ADC AND VINCRISTINE” (SEATTLE GENETICS, INC., priority 2015, published 2018).

Test system: ALL patient donor 06343 xenograft
Test: Disease burden (blast cells) in bone marrow, patient-derived ALL xenograft donor 06343
Format: in vivo, mouse
Conditions: for Disease Burden in Bone Marrow, CD45/10% Mean: NOD-scid IL2Rγ null mice, dosed at 38% blasts in sentinels, bone marrow counts day 14 post-dose
Excerpt: Establishment of patient-derived xenografts: NOD-scid IL2Rγ null mice were used as hosts for patient-derived xenografts. Twenty-four hours prior to cell implant, mice received 1.0 Gy irradiation using a Radsource 2000 irradiator (Radsource technologies, Suwanee, Ga.). Frozen bone marrow isolates of mononuclear cells from patients with acute lymphoblastic leukemia were obtained from […] (Alameda, Calif.). Cells were thawed in a warm water bath. After thaw, RPMI-1640 media was slowly added to the bone marrow isolate suspension. The cells were washed with PBS and centrifuged to remove DMSO in freezing media. After centrifugation, the cells were suspended in PBS. For, implantation, 3.6×10^6 cells were injected into the tail vein of female NOD-scid IL2Rγ null mice designated as donor, or passage 0 mice. Approximately 7 weeks after implant, mice were euthanized. Bone marrow and spleen were collected using sterile technique. Spleens were mechanically disrupted using a sterile syringe end and mesh filter. Connective tissues from spleens were filtered out using 40um filters. Splenocytes and bone marrow cells were treated with red blood cell buffer lysis (BD lysis buffer, BD biosciences, San Jose, Calif.) for 15 minutes at room temperature. A sample of the cells was utilized for confirmation of engraftment. The percentage of blast cells was determined by the number of CD45 FITC, CD19 PE-Cy.5 (BD Biosciences, San Jose, Calif.) CD10 APC (Biolegend, San Diego, Calif.) triple positive cells via flow cytometry (FACScalibur, BD Biosciences, San Jose, Calif.). The majority of the cells (passage 1) were placed into freezing media (90% Heat inactivated fetal bovine serum and 10% DMSO). Subsequent xenograft experiments utilized passage 1 cells. Cells were implanted in the same manner done for donor mice (passage 0 mice). Starting 14-21 days post implant, 2-3 sentinel mice were euthanized to determine the percentage blast cells in the bone marrow. Once the percentage of blast cells was at 25-50% of the bone marrow mononuclear cells mice were randomly placed into treatment groups. SGN-CD19A and non-specific ADC (also called h00-1269) were administered as a single intraperitoneal injection at 1.0, 3.0, or 10.0 mg/kg dose. Cyclophosphamide at 15 or 30 mg/kg (Baxter, Deefield, Ill.), Vincristine at 0.188 or 0.375 mg/kg (Hospira, Lake Forest, Ill.), and Doxorubicin at 1.24 or 2.475 mg/kg (Pfizer, NY, NY) were combined and administered as a single dose via intravenous injection into the lateral tail vein. Dexamethasone at 7.5 or 15 mg/kg (APP Pharmaceuticals, Schaumberg, Ill.) was given daily via intraperitoneal injection for five days. At pre-determined times post treatment, mice were euthanized for collection of bone marrow and determination of blast cell percentage via flow cytometry.
The response of human patient-derived ALL cells to single agent SGN-CD19A or CVAD was determined in mouse xenograft models. Bone marrow isolates from patients with ALL (donor 06343 and donor 90811) were used to establish xenografts in NOD-scid IL2Rgamma^null mice. After engraftment, patient-derived bone marrow cells were frozen and are referred to as passage 1 cells. Passage 1 cells were implanted into mice and assessed for presence of blast cells (CD45/CD10/CD19 positive cells). After blast cells were between 25-50% of the bone marrow, mice were placed in treatment groups (n=3 mice per time point). Mice were given either 1, 3, or 10 mg/kg of SGN-CD19A or 10 mg/kg of a non-specific ADC conjugated to MMAF (also called h00-1269). A maximum tolerated dose (MTD) of CVAD had previously been determined in the same mouse strain. Mice were given either CVAD at the MTD or at 50% of the MTD.
The response of human patient-derived ALL cells to the combination of SGN-CD19A and CVAD was also determined in the mouse xenograft model. Patient samples were engrafted as described above.

Row | Molecule | Disease Burden in Bone Marrow, CD45/10% Mean [%] | single agent dose response, blast cells in the bone marrow (SGN-CD19A 1, 3 or 10 mg/kg, CVAD at MTD or 50% of MTD, FIGS. 2A, 2C)
1 | O=P1(N(CCCl)CCCl)NCCCO1 (stereo not drawn) [Cyclophosphamide] | 90 | –
2 | C[C@@H]1C[C@H]2[C@@H]3CCC4=CC(=O)C=C[C@]4(C)[C@@]3(F)[C@@H](O)C[C@]2(C)[C@@]1(O)C(=O)CO [Dexamethasone] | 82.5 | –
3 | COc1cccc2c1C(=O)c1c(O)c3c(c(O)c1C2=O)C[C@@](O)(C(=O)CO)C[C@@H]3O[C@H]1C[C@H](N)[C@H](O)[C@H](C)O1 [Doxorubicin] | 69.2 | –
4 | CC[C@]1(O)C[C@H]2CN(CCc3c([nH]c4ccccc34)[C@@](C(=O)OC)(c3cc4c(cc3OC)N(C=O)[C@H]3[C@@](O)(C(=O)OC)[C@H](OC(C)=O)[C@]5(CC)C=CCN6CC[C@]43[C@@H]65)C2)C1 [Vincristine] | 69.1 | –
5 | SGN-CD19A: CD19-directed antibody-drug conjugate: humanized antibody hBU12, maleimidocaproyl linker, monomethyl auristatin F (MMAF); average four drugs per antibody (conjugate) VL: EIVLTQSPATLSLSPGERATLSCSASSSVSYMHWYQQKPGQAPRLLIYDTSKLASGIPARFSGSGSGTDFTLTISSLEPEDVAVYYCFQGSVYPFTFGQGTKLEIKR VH: QVQLQESGPGLVKPSQTLSLTCTVSGGSISTSGMGVGWIRQHPGKGLEWIGHIWWDDDKRYNPALKSRVTISVDTSKNQFSLKLSSVTAADTAVYYCARMELWSYYFDYWGQGTLVTVSS | 92.5 | decreasing amounts of blast cells in the bone marrow
